IC50 data for 17 compounds are collected here from patent publication US20260284214A1, “EXATECAN DERIVATIVE AND ANTIBODY-DRUG CONJUGATE THEREOF” (priority 2023, published 2026).

Each structure is given as a SMILES string. Where only a bound is given, the exact number is not on record here.

One experiment deals with FaDu cells. Briefly: Cell inhibitory activity experiment of cytotoxic drug (CellTiter-Glo, 72 hours). The experiment is classed as cell-based, human. The settings on record: Homo sapiens. As to the method:
(§1) Human pancreatic adenocarcinoma cells BxPC-3 (ATCC, article number: CRL-1687) and human pharyngeal squamous cell carcinoma cells FaDu (ATCC, article number: HTB-43) were washed with PBS, then the cells were digested with 0.25% Trypsin-EDTA trypsin for about 3 minutes, and the digestion was terminated with a complete cell culture medium. The cells were centrifuged at 1000 rpm for 5 minutes, the supernatant was discarded, and the cells were resuspended with a complete cell culture medium, counted by a cell counter, and adjusted to a required density. Each well was added with 50 μL of the cell suspension according to 3000 cells per well, and the cell plate was placed into a 5% CO2 cell incubator at 37° C. to incubate the cells for 12-16 hours.
(§2) The cell plate was taken out of the incubator to observe a cell adhesion state, and after cell adhesion, each well was added with 50 μL of the sample (starting from 10 μM, diluted 5 times, 9 concentrations), shaken gently, and then placed into an incubator to incubate the cells for 72 hours. Each well was added with a Cell Titer-GLO™ (Promega, article number: G7572) working solution according to 100 μL/well and shaken gently to lyse the cells, and the plate was read on a microplate reader.
(§3) Data analysis: a graph was made by GraphPad Prism 7.0 software with a Log value of a sample concentration as an abscissa and Cytotoxicity % as an ordinate, and data were subjected to Nonlinear regression (curve fit) analysis to obtain an IC50 value of each compound.

The next experiment deals with BxPC-3 cells. The experiment is described as above. The format is cell-based, human. The settings on record: Homo sapiens. As to the method: as §1, §2, §3

As to `CC[C@@]1(O)C(=O)OCc2c1cc1n(c2=O)Cc2c-1nc1cc(F)c(C)c3c1c2[C@@H](NC(=O)N1CC[C@H](O)C1)CC3` [Example 13, (S)—N-((1S,9S)-9-ethyl-5-fluoro-9-hydroxy-4-methyl-10,13-dioxo-2,3,9,10,13,15-hexahydro-1H,12H-benzo[de]pyrano[3′,4′:6,7]indolizino[1,2-b]quinolin-1-yl)-3-hydroxypyrrolidine-1-carboxamide], the IC50 in the experiment on FaDu cells was determined as 36 nM; in the experiment on BxPC-3 cells, 2.49 nM.

On to `CC[C@@]1(O)C(=O)OCc2c1cc1n(c2=O)Cc2c-1nc1cc(F)c(C)c3c1c2[C@@H](NC(=O)N(CCO)OC)CC3` [Example 8, 3-((1S,9S)-9-ethyl-5-fluoro-9-hydroxy-4-methyl-10,13-dioxo-2,3,9,10,13,15-hexahydro-1H,12H-benzo[de]pyrano[3′,4′:6,7]indolizino[1,2-b]quinolin-1-yl)-1-(2-hydroxyethyl)-1-methoxyurea], for which the IC50 in the experiment on FaDu cells was found to be 0.13 nM; in the experiment with BxPC-3 cells, 1.45 nM.

Turning to `CC[C@@]1(O)C(=O)OCc2c1cc1n(c2=O)Cc2c-1nc1cc(F)c(C)c3c1c2[C@@H](NC(=O)N(CC#N)CCO)CC3` [Example 1, 1-(cyanomethyl)-3-((1S,9S)-9-ethyl-5-fluoro-9-hydroxy-4-methyl-10,13-dioxo-2,3,9,10,13,15-hexahydro-1H,12H-benzo[de]pyrano[3′,4′:6,7]indolizino[1,2-b]quinoline-1-yl)-1-(2-hydroxyethyl)urea], the figures for the IC50 in the experiment with FaDu cells and with BxPC-3 cells were 6.68 nM and 8.27 nM, respectively.

As for `CC[C@@]1(O)C(=O)OCc2c1cc1n(c2=O)Cc2c-1nc1cc(F)c(C)c3c1c2[C@@H](NC(=O)N1CC(N)C1)CC3` [Example 15, 3-amino-N-((1S,9S)-9-ethyl-5-fluoro-9-hydroxy-4-methyl-10,13-dioxo-2,3,9,10,13,15-hexahydro-1H,12H-benzo[de]pyrano[3′,4′:6,7]indolizino[1,2-b]quinolin-1-yl) azetidine-1-carboxamide], the IC50 in the experiment on FaDu cells was 11.4 nM; in the experiment with BxPC-3 cells, 20.5 nM.

For the compound `CC[C@@]1(O)C(=O)OCc2c1cc1n(c2=O)Cc2c-1nc1cc(F)c(C)c3c1c2[C@@H](NC(=O)N[C@H]1C[C@H](N)C1)CC3` [Example 17], the IC50 was determined as 2.26 nM in the experiment with FaDu cells and 4.04 nM with BxPC-3 cells.

With `CC[C@@]1(O)C(=O)OCc2c1cc1n(c2=O)Cc2c-1nc1cc(F)c(C)c3c1c2[C@@H](NC(=O)N1C[C@@H](O)CO1)CC3` [Example 5, (R)—N-((1S,9S)-9-ethyl-5-fluoro-9-hydroxy-4-methyl-10,13-dioxo-2,3,9,10,13,15-hexahydro-1H,12H-benzo[de]pyrano[3′,4′:6,7]indolizino[1,2-b]quinolin-1-yl)-4-hydroxyisoxazoline-2-carboxamide], the values for the IC50 with FaDu cells and in the experiment on BxPC-3 cells were 0.75 nM and under 0.1 nM, respectively.

Take `CC[C@@]1(O)C(=O)OCc2c1cc1n(c2=O)Cc2c-1nc1cc(F)c(C)c3c1c2[C@@H](NC(=O)O[C@H]1C[C@H](N)C1)CC3` [Example 20, (1R,3S)-3-aminocyclobutyl((1S,9S)-9-ethyl-5-fluoro-9-hydroxy-4-methyl-10,13-dioxo-2,3,9,10,13,15-hexahydro-1H,12H-benzo[de]pyrano[3′,4′:6,7]indolizino[1,2-b]quinolin-1-yl)carbamate]: the results for the IC50 in the experiment with FaDu cells and in the experiment with BxPC-3 cells were 2 nM and 3.05 nM, respectively.

Consider `CC[C@@]1(O)C(=O)OCc2c1cc1n(c2=O)Cc2c-1nc1cc(F)c(C)c3c1c2[C@@H](NC(=O)N(O)CCO)CC3` [Example 7, 3-((1S,9S)-9-ethyl-5-fluoro-9-hydroxy-4-methyl-10,13-dioxo-2,3,9,10,13,15-hexahydro-1H,12H-benzo[de]pyrano[3′,4′:6,7]indolizino[1,2-b]quinolin-1-yl)-1-hydroxy-1-(2-hydroxyethyl)urea], for which the IC50 with FaDu cells is under 0.1 nM; with BxPC-3 cells it was 0.76 nM.

As to `CC[C@@]1(O)C(=O)OCc2c1cc1n(c2=O)Cc2c-1nc1cc(F)c(C)c3c1c2[C@@H](NC(=O)N[C@H]1C[C@@H](N)C1)CC3` [Example 16], the IC50 in the experiment with FaDu cells was 4.33 nM; in the experiment with BxPC-3 cells it was 7.93 nM.

`CC[C@@]1(O)C(=O)OCc2c1cc1n(c2=O)Cc2c-1nc1cc(F)c(C)c3c1c2[C@@H](NC(=O)O[C@H]1C[C@@H](N)C1)CC3` [Example 19, (1S,3R)-3-aminocyclobutyl((1S,9S)-9-ethyl-5-fluoro-9-hydroxy-4-methyl-10,13-dioxo-2,3,9,10,13,15-hexahydro-1H,12H-benzo[de]pyrano[3′,4′:6,7]indolizino[1,2-b]quinolin-1-yl)carbamate]: the IC50 with FaDu cells stood at 3.97 nM; in the experiment on BxPC-3 cells, 3.69 nM.

In the case of `CC[C@@]1(O)C(=O)OCc2c1cc1n(c2=O)Cc2c-1nc1cc(F)c(C)c3c1c2[C@@H](NC(=O)N[C@H]1C[C@H](O)C1)CC3` [Example 12, 1-((1S,9S)-9-ethyl-5-fluoro-9-hydroxy-4-methyl-10,13-dioxo-2,3,9,10,13,15-hexahydro-1H,12H-benzo[de]pyrano[3′,4′:6,7]indolizino[1,2-b]quinolin-1-yl)-3-((1r,3S)-3-hydroxycyclobutyl)urea], the IC50 in the experiment on FaDu cells was 42 nM; with BxPC-3 cells, 5.77 nM.

Take `CC[C@@]1(O)C(=O)OCc2c1cc1n(c2=O)Cc2c-1nc1cc(F)c(C)c3c1c2[C@@H](NC(=O)OC1CNC1)CC3` [Example 21, azetidine-3-yl((1S,9S)-9-ethyl-5-fluoro-9-hydroxy-4-methyl-10,13-dioxo-2,3,9,10,13,15-hexahydro-1H,12H-benzo[de]pyrano[3′,4′:6,7]indolizino[1,2-b]quinolin-1-yl)carbamate]: the IC50 in the experiment on FaDu cells was determined as 19.8 nM; in the experiment on BxPC-3 cells, 29.2 nM.

For the compound `CC[C@@]1(O)C(=O)OCc2c1cc1n(c2=O)Cc2c-1nc1cc(F)c(C)c3c1c2[C@@H](NC(=O)NC1CNC1)CC3` [Example 18, 1-(azetidin-3-yl)-3-((1S,9S)-9-ethyl-5-fluoro-9-hydroxy-4-methyl-10,13-dioxo-2,3,9,10,13,15-hexahydro-1H,12H-benzo[de]pyrano[3′,4′:6,7]indolizino[1,2-b]quinolin-1-yl)urea], the IC50 with FaDu cells is 16.9 nM; in the experiment with BxPC-3 cells, 40.8 nM.

On to `CC[C@@]1(O)C(=O)OCc2c1cc1n(c2=O)Cc2c-1nc1cc(F)c(C)c3c1c2[C@@H](NC(=O)N1C[C@H](O)CO1)CC3` [Example 4, (S)—N-((1S,9S)-9-ethyl-5-fluoro-9-hydroxy-4-methyl-10,13-dioxo-2,3,9,10,13,15-hexahydro-1H,12H-benzo[de]pyrano[3′,4′:6,7]indolizino[1,2-b]quinolin-1-yl)-4-hydroxyisoxazolidine-2-carboxamide], for which the IC50 with FaDu cells was found to be 2.95 nM; in the experiment with BxPC-3 cells, 1.84 nM.

As to `CC[C@@]1(O)C(=O)OCc2c1cc1n(c2=O)Cc2c-1nc1cc(F)c(C)c3c1c2[C@@H](NC(=O)N(C#N)CCO)CC3` [Example 9, 1-cyano-3-((1S,9S)-9-ethyl-5-fluoro-9-hydroxy-4-methyl-10,13-dioxo-2,3,9,10,13,15-hexahydro-1H,12H-benzo[de]pyrano[3′,4′:6,7]indolizino[1,2-b]quinolin-1-yl)-1-(2-hydroxyethyl)urea], the IC50 in the experiment on FaDu cells was 2.34 nM; in the experiment with BxPC-3 cells, 2.15 nM.

For `CC[C@@]1(O)C(=O)OCc2c1cc1n(c2=O)Cc2c-1nc1cc(F)c(C)c3c1c2[C@@H](NC(=O)N1CC(O)C1)CC3` [Example 10, N-((1S,9S)-9-ethyl-5-fluoro-9-hydroxy-4-methyl-10,13-dioxo-2,3,9,10,13,15-hexahydro-1H,12H-benzo[de]pyrano[3′,4′:6,7]indolizino[1,2-b]quinolin-1-yl)-3-hydroxyazetidine-1-carboxamide], the values for the IC50 in the experiment on FaDu cells and in the experiment with BxPC-3 cells were 6.04 nM and 5.1 nM, respectively.

For the compound `CC[C@@]1(O)C(=O)OCc2c1cc1n(c2=O)Cc2c-1nc1cc(F)c(C)c3c1c2[C@@H](NC(=O)N1CC[C@@H](O)C1)CC3` [Example 14, (R)—N-((1S,9S)-9-ethyl-5-fluoro-9-hydroxy-4-methyl-10,13-dioxo-2,3,9,10,13,15-hexahydro-1H,12H-benzo[de]pyrano[3′,4′:6,7]indolizino[1,2-b]quinolin-1-yl)-3-hydroxypyrrolidine-1-carboxamide], the IC50 in the experiment with FaDu cells stood at 57.8 nM; with BxPC-3 cells, 6.27 nM.
